# Entries after “also recorded” stand apart in the source; their conditions may differ.
# What was measured:
# Assay type in all cases: in vivo
# Male ICR mice [1] = experiment: Forced swim test (FST): duration of immobility, struggling and swimming; conditions: for duration of struggling in FST: betaine 20 mg/kg prior to ketamine 10 mg/kg
# Male ICR mice [2] = experiment: Rotarod test (motor coordination)
# Procedure: Motor coordination was examined using an automated rotarod device (Singa; Technology Co., Ltd, Taiwan) for a maximum of 6 mice. A computer recorded the latency to fall in seconds. During two-three days training period, the mice were first trained on the rotarod at a constant speed of 20 rotations per minute (rpm) until all of the mice were able to spend at least 3 min on the road. The test drug (0, 30 and 100 mg/kg) was administered 30 min prior to the ketamine (30 mg/kg) or saline injection. Then, the mice were tested 10, 15, 20, 25, and 30 min after ketamine injection.
# Male ICR mice [3] = experiment: Loss of righting reflex (LORR)
# Procedure: The test drug betaine (0, 300, and 600 mg/kg) or DMG (0, 100 and 300 mg/kg) was administered 30 min prior to the anesthetic doses of ketamine (100 mg/kg). Then, the mice were placed in a clean cage until the righting reflex was lost. They were then placed in the supine position until recovery and the onset and duration of the loss of righting reflex was recorded. Recovery of the righting reflex was defined as the ability to perform three successive rightings.
# Male Sprague-Dawley rats = experiment: Ketamine intravenous self-administration (IVSA) under progressive ratio (PR) schedule
# Procedure: The dose-dependent effects of betaine and its metabolite DMG on ketamine addiction were evaluated by the intravenous self-administration (IVSA) paradigm under a progressive ratio (PR) schedule. Animals were implanted indwelling catheters flushing of ketamine (0.5 mg/kg/per infusion), termed the training dose, under a FR1 schedule during daily 3-h sessions. After acquisition of stable responding for ketamine (criterion of less than 20% deviation from the mean of the total number of reinforcers earned in three consecutive sessions for each rat), the ketamine reinforcement schedule was changed to FR2 and maintained until responding stabilized at least for 3 days. Then, the PR schedule was conducted. The lever presses required to gain an infusion was determined by: 5×e^(infusion number×0.2)−5 (i.e., 1, 2, 4, 6, 9, […], 15, 20, 25, 32, etc). […] The dose-dependent effects of betaine of self-administration of various doses of ketamine ([…]) were assessed by pretreatment 30 min prior to their daily operant session using a within-subject Latin square design.
# Male ICR mice [4] = experiment: Novel object recognition test (NORT)
# Procedure: The novel location recognition test (NLRT) and novel object recognition test (NORT) were examined in a Plexiglas open field box (35×35×30 cm) located in a sound-attenuated room and illuminated with a 20-W light bulb. The novel location and novel object recognition procedure consisted of habituation, training, and retention sessions. Habituation was conducted in two consecutive daily sessions, during which each mouse was allowed to individually explore the box in the absence of objects for 20 min. The animal is then removed from the arena and placed in its home cage. During the sample phase, each animal was placed in the box, and after 5 min, two identical sample objects (A+A) were simultaneously introduced in two corners. Each animal was allowed to explore the objects for 5 min. An animal was considered to explore the object when its head was facing the object at a distance of approximately 1 cm or less between the head and object or when it was touching or sniffing the object. The time spent exploring each object was recorded using stopwatches by an experimenter blind to the treatment condition.
# After the sample phase, the mice were immediately returned to their home cages. The novel location recognition test was conducted 30 min after the training session. The animals were returned to the same box as during the sample phase, and one of the two objects was replaced with a novel local corner (A+A′) to test the location-based recognition memory. After 24 hours, novel object recognition test was performed. The mice are allowed to explore the open field with one identical sample object and a novel object to assess the novel object recognition memory (A+B). The animals were allowed to explore the box freely for 5 min, and the time spent exploring each object was recorded as described above. The objects and chambers were cleaned with 70% ethanol after each use. A preference index, a ratio of the amount of time spent exploring the original object or the novel location/object over the total time spent exploring both objects, was used to evaluate recognition memory. […]
# Male ICR mice [5] = experiment: Emergence test
# Procedure: The emergence test was examined in a test box (35×35×30 cm) contained an aluminum cylinder (10 cm deep×6.5 cm diameter) located lengthwise along one wall, with the open end 10 cm from the corner. The test drug (0, 30 and 100 mg/kg) or ketamine (10 mg/kg) was administered 30 min prior to the test. Mice were placed into the cylinder and tested for 10 min and scored three behavioral parameters: the latency to leave the cylinder, the number of entries into the cylinder and the total time spent inside the cylinder.
# [6] = betaine 300 and 600 mg/kg 30 min prior to ketamine 100 mg/kg
SMILES,"duration of struggling in FST (Male ICR mice [1]; day 1 test session, vs control)",duration of struggling in FST (Male ICR mice [1]; over both sessions),"duration of swimming in FST (Male ICR mice [1]; betaine 10, 20 and 30 mg/kg pretreatment prior to ketamine 10 mg/kg, day 1 test session, vs control)","duration of swimming in FST (Male ICR mice [1]; betaine 10, 20 and 30 mg/kg pretreatment prior to ketamine 10 mg/kg, over both sessions)","duration of swimming in FST (Male ICR mice [1]; betaine 20 and 30 mg/kg, over both sessions)",ketamine-induced motor in coordination (Male ICR mice [2]; betaine 30 and 100 mg/kg i.p. 30 min prior to ketamine 30 mg/kg),duration of ketamine-induced loss of righting reflex (Male ICR mice [3]; [6]),onset of ketamine-induced loss of righting reflex (Male ICR mice [3]; [6]),"reduction of ketamine IVSA (Male Sprague-Dawley rats; betaine 100 mg/kg pretreatment, PR schedule)","IVSA of ketamine (Male Sprague-Dawley rats; betaine pretreatment (30 and 100 mg/kg), ketamine 0.1-0.5 mg/kg/infusion, PR schedule)","significant effective dose for reduction of ketamine IVSA (Male Sprague-Dawley rats; betaine pretreatment, PR schedule) [mg/kg]","recognition impairing effects of ketamine (Male ICR mice [4]; betaine 30 and 100 mg/kg 30 min prior to ketamine 30 mg/kg, retention session)",anxiolytic effect in the emergence test (Male ICR mice [5]; betaine 30 and 100 mg/kg),"latency to stay on the rotarod (Male ICR mice [2]; ketamine 30 mg/kg, 10-30 min after administration)",loss of righting reflex (Male ICR mice [3]; ketamine 100 mg/kg i.p. (anesthetic dose)),"ketamine consumption over the dose-response curve (Male Sprague-Dawley rats; ketamine 0.1-0.5 mg/kg/infusion, control (vehicle-treated) animals)","recognition index (Male ICR mice [4]; ketamine 30 mg/kg, retention session (24 h))","total time spent inside the cylinder (Male ICR mice [5]; ketamine 10 mg/kg, post hoc)"
C[N+](C)(C)CC(=O)O [betaine],significantly increased,significantly increased,significantly increased,significantly increased,significantly increased,significantly reduced,did not affect,did not affect,3-5 times,dose-dependently reduced,30,significantly reversed,did not show anxiolytic effect,,,,,
CNC1(c2ccccc2Cl)CCCCC1=O (racemic) [ketamine],,,,,,,,,,,,,,significantly decreased,produced a loss of righting reflex; also recorded: produced LORR,increase,significantly reduced,significantly reduced

# From patent US11213495B2, “Method and composition for decreasing the psychotomimetic side effect and addictive disorder of ketamine” (NATIONAL HEALTH RESEARCH INSTITUTES, priority 2016, dated 2022)
